Results reported in ChEMBL document CHEMBL1201862, “PubChem BioAssay data set” (2004).
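96-well plates; 48 h exposure; 5 concentrations. Endpoints by linear interpolation between flanking doses. Not reached: highest tested concentration assigned. The concentration for 50% growth inhibition is given as GI50.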 Active and inactive are the calls of the source. No stated cut-off is given here; in the data, active = GI50 up to about 1.1 µM and inactive = higher.

Columns and labels:
Assay in all cases: growth of human tumour cells (NCI), 48 h
KM-20L2 = system: KM-20L2
DLD-1 = system: DLD-1
SNB-78 = system: SNB-78
RXF 631 = system: RXF 631
HOP-18 = system: HOP-18
DMS-114 = system: DMS-114
XF498 = system: XF498
LXFL 529 = system: LXFL 529
DMS-273 = system: DMS-273

## O=C(CCC(=O)Nc1ccc(Cl)c(Cl)c1)CC(=O)c1ccc(Br)cc1
KM-20L2
  GI50: > 100 µM (inactive)
DLD-1
  GI50: > 100 µM (inactive)
SNB-78
  GI50: > 100 µM (inactive)
RXF 631
  GI50: > 100 µM (inactive)
HOP-18
  GI50: > 100 µM (inactive)
DMS-114
  GI50: > 100 µM (inactive)
XF498
  GI50: > 100 µM (inactive)
LXFL 529
  GI50: 61.8 µM (inactive)

## CC(=O)NC(CCCCNC(=O)OCc1ccccc1)C(=O)NCc1ccccc1 (stereo unspecified)
KM-20L2
  GI50: > 100 µM (inactive)
DLD-1
  GI50: > 100 µM (inactive)
SNB-78
  GI50: 88.9 µM (inactive)
DMS-273
  GI50: > 100 µM (inactive)
DMS-114
  GI50: > 100 µM (inactive)
XF498
  GI50: > 100 µM (inactive)
LXFL 529
  GI50: > 100 µM (inactive)

## O=C1O/C(=C(/c2ccc(Cl)cc2)c2nc3ccccc3[nH]2)C(O)=C1c1ccc(Cl)cc1
KM-20L2
  GI50: 2.38 µM (inactive)
DLD-1
  GI50: 3.05 µM (inactive)
SNB-78
  GI50: 4 µM (inactive)
RXF 631
  GI50: 0.891 µM (active)
DMS-273
  GI50: 2.08 µM (inactive)
HOP-18
  GI50: 2.09 µM (inactive)
DMS-114
  GI50: 1.24 µM (inactive)
LXFL 529
  GI50: 2.65 µM (inactive)

## O=C(/C=C/c1ccccc1F)C(c1ccccc1)c1ccccc1
KM-20L2
  GI50: 3.8 µM (inactive)
DLD-1
  GI50: 3.24 µM (inactive)
SNB-78
  GI50: 5.93 µM (inactive)
DMS-273
  GI50: 3.85 µM (inactive)
XF498
  GI50: 1.99 µM (inactive)
LXFL 529
  GI50: 3.37 µM (inactive)

## O=C(Cc1nc2ccccc2o1)C(=O)Nc1ccc(Cl)cc1Cl
KM-20L2
  GI50: > 100 µM (inactive)
DLD-1
  GI50: > 100 µM (inactive)
SNB-78
  GI50: > 100 µM (inactive)
DMS-273
  GI50: > 100 µM (inactive)
HOP-18
  GI50: > 100 µM (inactive)
DMS-114
  GI50: > 100 µM (inactive)
LXFL 529
  GI50: > 100 µM (inactive)

## Nc1ccc(C(=O)NN2C(=O)C(Cl)C2c2ccccc2)cc1 (stereo unspecified)
KM-20L2
  GI50: > 100 µM (inactive)
DLD-1
  GI50: > 100 µM (inactive)
SNB-78
  GI50: > 100 µM (inactive)
DMS-273
  GI50: > 100 µM (inactive)
DMS-114
  GI50: > 100 µM (inactive)
XF498
  GI50: > 100 µM (inactive)
LXFL 529
  GI50: > 100 µM (inactive)

## O=Cc1cc2c(s1)C(=O)c1sccc1C2=O
KM-20L2
  GI50: 2.1 µM (inactive)
DLD-1
  GI50: 0.351 µM (active)
SNB-78
  GI50: 1.41 µM (inactive)
DMS-273
  GI50: 0.168 µM (active)
HOP-18
  GI50: 0.183 µM (active)
DMS-114
  GI50: 0.188 µM (active)
XF498
  GI50: 1.26 µM (inactive)
LXFL 529
  GI50: 0.2 µM (active)

## O=C(c1ccccc1)[C@@H]1C[C@H](Sc2ccccc2)c2cc(Cl)ccc2N1
KM-20L2
  GI50: 26.9 µM (inactive)
DLD-1
  GI50: 23.4 µM (inactive)
SNB-78
  GI50: 36.9 µM (inactive)
RXF 631
  GI50: 28.1 µM (inactive)
DMS-273
  GI50: 24 µM (inactive)
HOP-18
  GI50: > 100 µM (inactive)
DMS-114
  GI50: 21.1 µM (inactive)
XF498
  GI50: 18.9 µM (inactive)
LXFL 529
  GI50: 24 µM (inactive)

## CC1(C)C(=O)/C=C\C(=O)C(C)(C)C2=CC=C(O2)C(C)(C)C(=O)C(Br)C(Br)C(=O)C(C)(C)C2=CC=C1O2 (stereo unspecified)
KM-20L2
  GI50: > 100 µM (inactive)
DLD-1
  GI50: 13.6 µM (inactive)
SNB-78
  GI50: 41.8 µM (inactive)
RXF 631
  GI50: > 100 µM (inactive)
DMS-273
  GI50: 33.3 µM (inactive)
HOP-18
  GI50: > 100 µM (inactive)
DMS-114
  GI50: > 31.6 µM (inactive)
XF498
  GI50: > 67.5 µM (inactive)
LXFL 529
  GI50: 27.9 µM (inactive)

## CCOC(=O)Nc1ccc(S(=O)(=O)I)cc1.CCOC(=O)Nc1ccc(S(=O)(=O)I)cc1.CNC(=O)N=O.NC(=O)OCCCl
KM-20L2
  GI50: > 100 µM (inactive)
DLD-1
  GI50: > 100 µM (inactive)
SNB-78
  GI50: > 100 µM (inactive)
RXF 631
  GI50: > 100 µM (inactive)
DMS-114
  GI50: > 100 µM (inactive)
XF498
  GI50: > 100 µM (inactive)
LXFL 529
  GI50: > 100 µM (inactive)

## C/C(C=O)=C1\C(O)C[C@]1(C)C1CC(C)(C)CC1O (stereo partly specified)
KM-20L2
  GI50: > 100 µM (inactive)
DLD-1
  GI50: > 100 µM (inactive)
SNB-78
  GI50: > 100 µM (inactive)
DMS-273
  GI50: > 100 µM (inactive)
DMS-114
  GI50: 39.1 µM (inactive)
LXFL 529
  GI50: 57.1 µM (inactive)

## CN(C)c1ccc(N=O)c(O)c1.CN(C)c1ccc(N=O)c(O)c1.[SiH4]
KM-20L2
  GI50: 4.65 µM (inactive)
DLD-1
  GI50: 8.28 µM (inactive)
HOP-18
  GI50: 12.1 µM (inactive)
DMS-114
  GI50: 3.72 µM (inactive)
XF498
  GI50: 9.4 µM (inactive)
LXFL 529
  GI50: 5.64 µM (inactive)

## Oc1ncc(N(CCCl)CCCl)c(O)n1 [URACIL MUSTARD]
KM-20L2
  GI50: 69.5 µM (inactive)
DLD-1
  GI50: 78.3 µM (inactive)
SNB-78
  GI50: 79.6 µM (inactive)
DMS-273
  GI50: 4.55 µM (inactive)
HOP-18
  GI50: 51.6 µM (inactive)
DMS-114
  GI50: 14 µM (inactive)
XF498
  GI50: 23 µM (inactive)
LXFL 529
  GI50: 71.4 µM (inactive)
